Assay results reported in patent publication US20250276107A1, “HYDROGEL SYSTEMS AND METHODS FOR TREATING FISTULA AND OTHER INDICATIONS” (Terasaki Institute for Biomedical Innovation, priority 2024, published 2025).

Tested on: red blood cells (RBCs)
Assay: Hemolysis test with diluted whole human blood
Format: cell-based
Conditions: 2 h, physiological temperature
Method: In the development of bioadhesives, it is important to assess hemocompatibility to evaluate whether the materials damage the blood cells. For this purpose, a standard hemolysis test was performed by exposing crosslinked hydrogels to diluted sodium citrate-treated whole human blood for 2 h at physiological temperature. The presence of a toxic effect was assessed visually by observing the appearance of a red-colored supernatant after centrifugation, indicating the release of hemoglobin from ruptured red blood cells (RBCs). […] After incubation with hydrogels, intact RBCs were efficiently sedimented through centrifugation, similar to the saline negative control. […] The disruption of RBCs was further assessed through colorimetric analysis, with the calculated percent hemolysis induced by the hydrogels presented in FIG. 6A(II). The hemolysis level of the hydrogels at all tested PDA concentrations remained below the acceptable limit (≤5%).

## Triton X-100
  supernatant colour after centrifugation (visual hemolysis): reddish supernatant
